{
  "source": "patent US20260217709A1",
  "about": "“2-OXOQUINAZOLINE DERIVATIVES AS METHIONINE ADENOSYLTRANSFERASE 2A INHIBITORS” (IDEAYA BIOSCIENCES, INC., priority 2018, published 2026)",
  "key": {"hMAT2A [1]": {"target": "T1, hMAT2A (Homo sapiens, UniProt P31153)", "T1 sequence (P31153 whole entry, the tested form may be a part)": "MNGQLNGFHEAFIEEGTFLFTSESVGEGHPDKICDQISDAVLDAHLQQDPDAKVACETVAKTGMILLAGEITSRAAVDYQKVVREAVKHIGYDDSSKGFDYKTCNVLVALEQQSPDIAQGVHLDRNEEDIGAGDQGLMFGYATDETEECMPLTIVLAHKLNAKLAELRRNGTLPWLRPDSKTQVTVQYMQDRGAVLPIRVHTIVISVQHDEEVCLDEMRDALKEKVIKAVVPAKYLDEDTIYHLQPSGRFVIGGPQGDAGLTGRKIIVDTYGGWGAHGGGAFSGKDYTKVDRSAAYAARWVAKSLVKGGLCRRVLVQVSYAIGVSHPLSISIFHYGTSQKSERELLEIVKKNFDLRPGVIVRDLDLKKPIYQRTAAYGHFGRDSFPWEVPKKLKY", "assay": "Phosphate Sensor Fluorescence Assay (MAT2A enzyme inhibition)", "type": "biochemical", "set-up": "Human MAT2A: Cepter, amino acids 1-395; purchased Cepter clone ID 329, lot 00023-123; clone ID 334, lot 00023-148", "settings": "L-methionine 500 uM, ATP 500 uM, 1 hour room temperature", "procedure": "(§1) The ability of the compound of present disclosure to inhibit MAT2A enzyme was determined using the Malachite Green or Phosphate Sensor Fluorescence Assay described below.\nB. Phosphate Sensor Fluorescence Assay\nMAT2A enzyme is incubated with a test compound in DMSO or DMSO and its substrates (L-methionine and ATP) in a microtiter plate. The enzymatic reaction is stopped by the addition of Working Phosphate Sensor Mixture. The plate is analyzed for fluorescence at 450 nm.\nTest compounds or DMSO were added to the appropriate well suing D300e digital dispenser. 5 μl/well of Assay Buffer was added to the wells corresponding to the negative control and 5 μl/well of MAT2A was added to all the wells except for those corresponding to the negative control. After incubating the plate at room temperature for 15 minutes, 5 μl/well of the 1 mM L-methionine/1 mM ATP mixture was added to all wells. The plate was centrifuged at 1000 rpm for 1 minute and then incubated at room temperature for 1 hour. 5 μl of the Working Phosphate Sensor Mixture was added to all wells and the plate was centrifuged at 1000 rpm for 1 minute. The plate was read for fluorescence at 450 nm after exciting at 430 nm.\nPercent inhibition was calculated in Chemical and Biological Information System (CBIS), (ChemInnovation Software Inc.). […]"}, "hMAT2A [2]": {"target": "T1, hMAT2A", "assay": "Malachite Green Assay (MAT2A enzyme inhibition)", "type": "biochemical", "set-up": "amino acids 1-395; purchased Cepter", "settings": "hMAT2A 50 nM, substrates 500 uM each, reaction time 1 hour, 23° C.", "procedure": "as §1\nL-methionine Substrate: Alfa Aesar catalog #J61904\nATP Substrate: Alfa Aesar cat #J60336\nMalachite Green Detection Reagent: Millipore Sigma catalog #MAK307-1KT\nAssay buffer: 50 mM Tris, pH 7.5/50 mM KCl/10 mM MgCl2/0.01% Brij-35/1 mM DTT/0.1% BGG\nThe plate was centrifuged at 1000 rpm for 1 minute and then incubated at room temperature for 1 hour. 5 μL of malachite green detection reagent was added to all the test wells and the plate was centrifuged at 1000 rpm for 1 minute and then incubated at room temperature for 30 minutes. The plate was read for absorbance at 620 nm on a plate reader (e.g., Infinite M1000)."}},
  "data": [
    {"molecule": "1[2-(difluoromethoxy)(3-pyridyl)]-7- cyclopropyl-4-[(cyclopropylmethyl)- amino]hydroquinazolin-2-one [Example 416]", "values": [
      {"measurement": "IC50", "setting": "hMAT2A [1]; class symbols", "result": "< 0.2", "unit": "µM"}
    ]},
    {"molecule": "7-chloro-1-(2-fluoro-3- metho xyphenyl)-4- hydroxyhydroquinazolin-2-one [Example 332]", "values": [
      {"measurement": "IC50", "setting": "hMAT2A [1]; numeric bound", "result": "> 10", "unit": "µM"}
    ]},
    {"molecule": "Nc1nc(=O)n(-c2ccccc2)c2cc(Cl)ccc12", "note": "[Example 59, 4-amino-7-chloro-1-phenylquinazolin-2(1H)-one]", "values": [
      {"measurement": "IC50", "setting": "hMAT2A [2]", "result": "1 to 10", "unit": "µM"}
    ]}
  ]
}
